Data taken from patent publication US9567339B2, “Primary carboxamides as BTK inhibitors” (AbbVie Inc., priority 2013, dated 2017).

Biological target: BTK, recombinant human catalytic domain (aa 393-659) (Homo sapiens (Human), UniProt Q06187)
Experiment: In vitro BTK kinase activity measured by time-resolved fluorescence resonance energy transfer (trFRET)
Assay type: biochemical
Conditions: read-out: Btk IC50

BTK, recombinant human catalytic domain (aa 393-659), sequence (Q06187 393-659): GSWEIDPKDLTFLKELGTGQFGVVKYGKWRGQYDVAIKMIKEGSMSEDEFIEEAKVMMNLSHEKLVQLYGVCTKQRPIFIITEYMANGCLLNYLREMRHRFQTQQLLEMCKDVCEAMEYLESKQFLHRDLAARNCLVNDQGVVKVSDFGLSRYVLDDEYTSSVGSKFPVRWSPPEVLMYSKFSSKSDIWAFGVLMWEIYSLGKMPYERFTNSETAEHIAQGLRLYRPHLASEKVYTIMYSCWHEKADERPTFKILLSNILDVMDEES

Structure (SMILES) | IC50
Cc1c(NC(=O)/C=C\Cl)cccc1-c1ccc(C(N)=O)c2[nH]c(C3=CCN(S(C)(=O)=O)CC3)cc12 [D.7.17] | < 0.1 µM
COC(=O)/C=C/C(=O)Nc1cccc(-c2ccc(C(N)=O)c3[nH]c(C4=CCN(S(C)(=O)=O)CC4)cc23)c1C [D.7.18] | < 0.1 µM
Cc1c(NC(=O)C2=CCCCC2)cccc1-c1ccc(C(N)=O)c2[nH]c(C3=CCN(S(C)(=O)=O)CC3)cc12 [D.7.19] | < 0.1 µM
CCOC(=O)/C=C/C(=O)Nc1cccc(-c2ccc(C(N)=O)c3[nH]c(C4=CCN(S(C)(=O)=O)CC4)cc23)c1C [D.7.20] | < 0.1 µM
Cc1c(NC(=O)COc2ccccc2)cccc1-c1ccc(C(N)=O)c2[nH]c(C3=CCN(S(C)(=O)=O)CC3)cc12 [D.7.21] | < 0.1 µM
Cc1c(NC(=O)CF)cccc1-c1ccc(C(N)=O)c2[nH]c(C3=CCN(S(C)(=O)=O)CC3)cc12 [D.7.22] | < 0.1 µM
Cc1c(NC(=O)CCN(C)C)cccc1-c1ccc(C(N)=O)c2[nH]c(C3=CCN(S(C)(=O)=O)CC3)cc12 [D.7.23] | < 0.1 µM
Cc1c(NC(=O)COc2ccccn2)cccc1-c1ccc(C(N)=O)c2[nH]c(C3=CCN(S(C)(=O)=O)CC3)cc12 [D.7.24] | < 0.1 µM
Cc1c(NC(=O)/C=C/C(N)=O)cccc1-c1ccc(C(N)=O)c2[nH]c(C3=CCN(S(C)(=O)=O)CC3)cc12 [D.7.25] | < 0.1 µM
CCC(Cl)C(=O)Nc1cccc(-c2ccc(C(N)=O)c3[nH]c(C4=CCN(S(C)(=O)=O)CC4)cc23)c1C (stereo not drawn) [D.7.26] | < 0.1 µM
Cc1c(NC(=O)CCN2CCN(C)CC2)cccc1-c1ccc(C(N)=O)c2[nH]c(C3=CCN(S(C)(=O)=O)CC3)cc12 [D.7.27] | < 0.1 µM
Cc1c(NC(=O)COc2cccnn2)cccc1-c1ccc(C(N)=O)c2[nH]c(C3=CCN(S(C)(=O)=O)CC3)cc12 [D.7.28] | < 0.1 µM
Cc1nc(C(=O)Nc2cccc(-c3ccc(C(N)=O)c4[nH]c(C5=CCN(S(C)(=O)=O)CC5)cc34)c2C)cs1 [D.7.30] | < 0.1 µM
Cc1c(NC(=O)C2CCOCC2)cccc1-c1ccc(C(N)=O)c2[nH]c(C3=CCN(S(C)(=O)=O)CC3)cc12 [D.7.33] | < 0.1 µM
COC1CCCC(C(=O)Nc2cccc(-c3ccc(C(N)=O)c4[nH]c(C5=CCN(S(C)(=O)=O)CC5)cc34)c2C)C1 (stereo not drawn) [D.7.34] | < 0.1 µM
Cc1c(NC(=O)C2CCN(C)CC2)cccc1-c1ccc(C(N)=O)c2[nH]c(C3=CCN(S(C)(=O)=O)CC3)cc12 [D.7.36] | < 0.1 µM
Cc1c(NC(=O)c2cnsc2)cccc1-c1ccc(C(N)=O)c2[nH]c(C3=CCN(S(C)(=O)=O)CC3)cc12 [D.7.38] | < 0.1 µM
Cc1c(NC(=O)C(C)C)cccc1-c1ccc(C(N)=O)c2[nH]c(C3=CCN(S(C)(=O)=O)CC3)cc12 [D.7.40] | < 0.1 µM
CCC(=O)Nc1cccc(-c2ccc(C(N)=O)c3[nH]c(C4=CCN(S(C)(=O)=O)CC4)cc23)c1C [D.7.41] | < 0.1 µM
C=CC(=O)NCc1ccccc1-c1ccc(C(N)=O)c2[nH]c(C3=CCN(S(C)(=O)=O)CC3)cc12 [E.1.1] | < 0.1 µM
C=CC(=O)Nc1ccccc1-c1ccc(C(N)=O)c2[nH]ccc12 [E.1.2] | 1 to 10 µM

Structure (SMILES) | IC50
C=CC(=O)N(C)c1cccc(-c2ccc(C(N)=O)c3[nH]ccc23)c1 [E.1.5] | < 0.1 µM
C=CC(=O)N(Cc1nccs1)c1cccc(-c2ccc(C(N)=O)c3[nH]c(C4=CCN(S(C)(=O)=O)CC4)cc23)c1C [E.1.7] | < 0.1 µM
C=CC(=O)Nc1cccc(-c2ncc(C(N)=O)c3[nH]ccc23)c1C [E.1.9] | < 0.1 µM
C=CC(=O)N[C@@H]1CCCN(c2ccc(C(N)=O)c3[nH]c(C4=CCN(S(C)(=O)=O)CC4)cc23)C1 [E.1.11*] | < 0.1 µM
C=CC(=O)Nc1cc(-c2ccc(C(N)=O)c3[nH]ccc23)ccc1OCc1ccccc1 [E.1.12] | 1 to 10 µM
C=CC(=O)Nc1cc(-c2ccc(C(N)=O)c3[nH]ccc23)ccc1OCc1nccs1 [E.1.13] | 0.1 to 1 µM
C=CC(=O)Nc1cc(OCc2ccccc2)cc(-c2ccc(C(N)=O)c3[nH]ccc23)c1 [E.1.14] | 1 to 10 µM
C=CC(=O)Nc1cc(OCc2nccs2)cc(-c2ccc(C(N)=O)c3[nH]ccc23)c1 [E.1.15] | 0.1 to 1 µM
C=CC(=O)Nc1cc(OCc2ccccc2)ccc1-c1ccc(C(N)=O)c2[nH]ccc12 [E.1.17] | 1 to 10 µM
C=CC(=O)Nc1cccc(-c2ccc(C(N)=O)c3[nH]c(C=C)cc23)c1 [E.1.18] | < 0.1 µM
C=CC(=O)Nc1cc(-c2ccc(C(N)=O)c3[nH]ccc23)ccc1Cl [E.1.19] | < 0.1 µM
C=CC(=O)Nc1ccc(F)c(-c2ccc(C(N)=O)c3[nH]ccc23)c1F [E.1.20] | < 0.1 µM
C=CC(=O)Nc1cc(F)c(F)c(-c2ccc(C(N)=O)c3[nH]ccc23)c1 [E.1.21] | < 0.1 µM
C=CC(=O)Nc1cc(-c2ccc(C(N)=O)c3[nH]ccc23)c(F)cc1F [E.1.22] | < 0.1 µM
C=CC(=O)Nc1cc(-c2ccc(C(N)=O)c3[nH]ccc23)ccc1F [E.1.23] | < 0.1 µM
C=CC(=O)Nc1cc(C#N)cc(-c2ccc(C(N)=O)c3[nH]ccc23)c1 [E.1.26] | 0.1 to 1 µM
C=CC(=O)Nc1cccc(-c2ccc(C(N)=O)c3[nH]ccc23)c1C#N [E.1.27] | 0.1 to 1 µM
C=CC(=O)Nc1cc(OC)cc(-c2ccc(C(N)=O)c3[nH]ccc23)c1 [E.1.28] | 0.1 to 1 µM
C=CC(=O)Nc1cccc(-c2ccc(C(N)=O)c3[nH]ccc23)c1OC [E.1.30] | 0.1 to 1 µM
C=CC(=O)Nc1ccc(F)c(-c2ccc(C(N)=O)c3[nH]ccc23)c1 [E.1.32] | 0.1 to 1 µM
C=CC(=O)Nc1cccc(-c2ccc(C(N)=O)c3[nH]ccc23)c1F [E.1.33] | < 0.1 µM

Now from value to molecule:

IC50 | Structure (SMILES)
< 0.1 µM | CC/C=C(\C)C(=O)Nc1cccc(-c2ccc(C(N)=O)c3[nH]c(C4=CCN(S(C)(=O)=O)CC4)cc23)c1C [D.7.16]
< 0.1 µM | Cc1c(NC(=O)C2CCCCC2)cccc1-c1ccc(C(N)=O)c2[nH]c(C3=CCN(S(C)(=O)=O)CC3)cc12 [D.7.29]
< 0.1 µM | Cc1c(NC(=O)C2CCCC2)cccc1-c1ccc(C(N)=O)c2[nH]c(C3=CCN(S(C)(=O)=O)CC3)cc12 [D.7.31]
< 0.1 µM | Cc1cnc(C(=O)Nc2cccc(-c3ccc(C(N)=O)c4[nH]c(C5=CCN(S(C)(=O)=O)CC5)cc34)c2C)s1 [D.7.32]
< 0.1 µM | Cc1c(NC(=O)CC(C)C)cccc1-c1ccc(C(N)=O)c2[nH]c(C3=CCN(S(C)(=O)=O)CC3)cc12 [D.7.35]
0.1 to 1 µM | Cc1c(NC(=O)C2CCCN(C)C2)cccc1-c1ccc(C(N)=O)c2[nH]c(C3=CCN(S(C)(=O)=O)CC3)cc12 (stereo not drawn) [D.7.37]
< 0.1 µM | Cc1c(NC(=O)c2cccnc2)cccc1-c1ccc(C(N)=O)c2[nH]c(C3=CCN(S(C)(=O)=O)CC3)cc12 [D.7.39]
< 0.1 µM | C=CC(=O)Nc1cc(-c2ccc(C(N)=O)c3[nH]ccc23)ccn1 [E.1.3]
< 0.1 µM | C=CC(=O)Nc1cncc(-c2ccc(C(N)=O)c3[nH]ccc23)c1 [E.1.4]
0.1 to 1 µM | C=CC(=O)Nc1cc(-c2ccc(C(N)=O)c3[nH]ccc23)ccc1OC [E.1.8]
< 0.1 µM | C=CC(=O)Nc1cccc(-c2ncc(C(N)=O)c3[nH]ccc23)c1 [E.1.10]
1 to 10 µM | C=CC(=O)Nc1cc(OCc2nccs2)ccc1-c1ccc(C(N)=O)c2[nH]ccc12 [E.1.16]
< 0.1 µM | C=CC(=O)Nc1ccc(Cl)c(-c2ccc(C(N)=O)c3[nH]ccc23)c1 [E.1.24]
< 0.1 µM | C=CC(=O)Nc1cc(-c2ccc(C(N)=O)c3[nH]ccc23)ccc1C [E.1.25]
0.1 to 1 µM | C=CC(=O)Nc1cc(C)cc(-c2ccc(C(N)=O)c3[nH]ccc23)c1 [E.1.29]
< 0.1 µM | C=CC(=O)Nc1cc(-c2ccc(C(N)=O)c3[nH]ccc23)ccc1C#N [E.1.31]
1 to 10 µM | C=CC(=O)N(CC1CCCC1)c1cccc(-c2ccc(C(N)=O)c3[nH]ccc23)c1 [E.1.34, 4-(3-(N-(cyclopentylmethyl)acrylamido)phenyl)-1H-indole-7-carboxamide]

Same assay, conditions: trFRET, 0.001 mM ATP, biotin-TYR1 peptide substrate; read-out: Btk IC50

Structure (SMILES) | IC50
Cc1c(NC(=O)/C=C/c2ccccn2)cccc1-c1ccc(C(N)=O)c2[nH]ccc12 [D.8.3] | 0.1 to 1 µM
Cc1c(NC(=O)/C=C/c2cccnc2)cccc1-c1ccc(C(N)=O)c2[nH]ccc12 [D.8.4] | 0.1 to 1 µM
Cc1c(NC(=O)/C=C/C2CC2)cccc1-c1ccc(C(N)=O)c2[nH]ccc12 [D.8.6] | 0.1 to 1 µM
Cc1c(NC(=O)/C=C/C(C)C)cccc1-c1ccc(C(N)=O)c2[nH]ccc12 [D.8.8] | 0.1 to 1 µM
C/C=C/C(=O)Nc1cccc(-c2ccc(C(N)=O)c3[nH]ccc23)c1C [D.8.9] | 0.1 to 1 µM
C=C(C)C(=O)Nc1cccc(-c2ccc(C(N)=O)c3[nH]ccc23)c1C [D.8.10] | 1 to 10 µM
CC(=O)Nc1cccc(-c2ccc(C(N)=O)c3[nH]ccc23)c1C [D.8.12] | 1 to 10 µM
Cc1c(NC(=O)CCN2CCCC2)cccc1-c1ccc(C(N)=O)c2[nH]ccc12 [D.8.14] | 1 to 10 µM
COCCNC(=O)/C=C\C(=O)Nc1cccc(-c2ccc(C(N)=O)c3[nH]ccc23)c1 [D.9.1] | 0.1 to 1 µM
C#CC(=O)N1CC(N(C)c2ccc(C(N)=O)c3[nH]c(C)cc23)C1 [D.10.1] | < 0.1 µM
C=CC(=O)Nc1cccc(-c2ccc(C(N)=O)c3[nH]c(C4=CCC(F)(F)CC4)cc23)c1C [E.1, 4-(3-Acrylamido-2-methylphenyl)-2-(4,4-difluorocyclohex-1-en-1-yl)-1H-indole-7-carboxamide] | < 0.1 µM

The next lines start with the values.

IC50 | Structure (SMILES)
< 0.1 µM | CCOC(=O)/C=C/C(=O)Nc1cccc(-c2ccc(C(N)=O)c3[nH]ccc23)c1C [D.8.1]
0.1 to 1 µM | Cc1c(NC(=O)/C=C/c2cnn(C)c2)cccc1-c1ccc(C(N)=O)c2[nH]ccc12 [D.8.2]
0.1 to 1 µM | Cc1c(NC(=O)/C=C/c2nccs2)cccc1-c1ccc(C(N)=O)c2[nH]ccc12 [D.8.5]
0.1 to 1 µM | C=C(C(=O)Nc1cccc(-c2ccc(C(N)=O)c3[nH]ccc23)c1C)c1ccccc1 [D.8.7]
1 to 10 µM | C=C(CC)C(=O)Nc1cccc(-c2ccc(C(N)=O)c3[nH]ccc23)c1C [D.8.11]
1 to 10 µM | Cc1c(NC(=O)CCN2CCOCC2)cccc1-c1ccc(C(N)=O)c2[nH]ccc12 [D.8.13]
< 0.1 µM | CCNC(=O)/C=C\C(=O)Nc1cccc(-c2ccc(C(N)=O)c3[nH]ccc23)c1C [D.8.15]
< 0.1 µM | CCNC(=O)/C=C\C(=O)Nc1cccc(-c2ccc(C(N)=O)c3[nH]ccc23)c1 [D.9.2]
